Measured values: patent publication US5407925A (priority 1991, dated 1995)

Assays:
[1] = system: TE-671; experiment: intrathecal treatment of subarachnoid TE-671 human medulloblastoma xenografts in nude rats; assay type: in vivo, Female athymic nude rats; human medulloblastoma cell line; conditions: for loss of antigravity strength / increase in median survival: intrathecal
[2] = system: cells in vitro; conditions: compared with 4-hydrocyclophosphamide, Redwood et al. 1982; cited from earlier work
[3] = system: murine leukemia cells; conditions: Hilton 1984; cited from earlier work
[4] = system: human breast cancer cells; conditions: Kubota et al. 1983; cited from earlier work
[5] = system: Burkitt's lymphoma cell lines; conditions: De Fabritiis et al. 1985; cited from earlier work
[6] = system: MOLT-4; conditions: MOLT-4 (a T-cell leukemia); cited from earlier work
[7] = system: rhabdomyosarcoma cell line; conditions: cited from earlier work
[8] = system: McF-7; conditions: breast cancer cell line McF-7; cited from earlier work
[9] = system: TE-671; conditions: medulloblastoma cell line TE-671; cited from earlier work
[10] = direct intrathecal administration, 100 uM in the cerebrospinal fluid; cited from earlier work
[11] = clinical evidence of toxicity of intrathecal treatment in tumor-bearing nude rats; conditions: either dose (final concentration 100 uM or 250 uM)
[12] = final concentration 250 uM, p less than 0.01

For O=P1(N(CCCl)CCCl)NC(OO)CCO1 (stereo not shown) [4-HC, 4-hydroperoxycyclophosphamide], the “time by which loss of stepping and placing reflexes and ramp climbing ability preceded death” value ([1]; both treatment studies (100 uM and 250 uM)) was “approximately 3 days”, the “loss of antigravity strength” value ([1]; final CSF concentration 100 uM, day 8 after tumor inoculation, p=0.036) was “delay in the loss of antigravity strength” and the “increase in median survival” value ([1]; final CSF concentration 100 uM, day 8 after tumor inoculation, p=0.04) was 20%. The “increase in median survival” value [1, 12] was 36%, the “loss of antigravity strength” value [1, 12] was “further delay in the loss of antigravity strength” and the “histopathology after death: subarachnoid tumor infiltrate” value ([1]; sections from all animals, 4-HC-treated and saline-treated control groups, base of the brain to the cauda equina) was “diffuse subarachnoid infiltrate of tumor cells”. For the same compound, the “toxicity on a molar basis to cells in vitro versus 4-hydrocyclophosphamide” value [2] was “equal toxicity on a molar basis”, the activity in vitro [3] was “active in vitro” and the activity in vitro [4] was “active in vitro”. For the same compound, the activity in vitro [5] was “active in vitro”, the “concentration at which active” value [6] was 2.5 µM and the “concentration at which active” value [7] was 8 µM. The “concentration at which active” value [8] was 9.5 µM, the “concentration at which active” value [9] was 12.8 µM and the toxicity [10] was “without producing toxicity”. For the same compound, the “clinical evidence of toxicity” value [11] was “no clinical evidence of toxicity”.
